Laboratory results: patent publication US4734399A, “Growth hormone releasing factor analogs” (Hoffmann-La Roche Inc., priority 1986, dated 1988)

How the values were obtained:
[1] = tested on: rat pituitary cells; assay: Stimulation of growth hormone production in rat pituitary cells in tissue culture (RIA for rat growth hormone); assay type: cell-based; conditions: for Potency Relative to GRF(1-44)-NH2: Exp. #GB 83, rat anterior pituitary cells, 4 hours of incubation, 0.8 to 200 fmol per ml, GH by RIA
Procedure: The assay for biological activity, which is based on the ability to stimulate production of growth hormone in rat pituitary cells in tissue culture, was performed as discribed in Example 2.
Pituitaries from 30-40 male Sprague-Dawley rats (175 g) were removed aseptically after decapitation. The anterior lobes were collected, washed 3 times in sterile Hepes buffer (0.025M) (pH 7.35) and dispersed at 37° C. in 20-30 ml Hepes buffer (pH 7.35) containing collagenase (4 mg per ml) and Dispase (Protease grade II, 2 mg per ml). After gentle 100-110 min vortexing and trituration by Pasteur pipette, the dispersed cells were separated by centrifugation (150×g, 4 min) and re-suspended in Hepes buffer containing neuraminidase ([…]), and 200 µg/ml ethylenediaminetetraacetic acid (EDTA) disodium salt, pH 7.35, for 10 min.
The cells were washed twice with plating medium and plated on multiwell-plates (1.5×10^5 cells per ml) using the following defined medium: F-12/DMEM/BGJ (6:3:1) (Gibco: 430-1700/430-1600/320-2591) with 2 g BSA/l., 2.38 g Hepes/1.50 mg PSN antibiotic mixture (Gibco Laboratories), 10 mg/l transferrin (Sigma T2252) with 1.83 g NaHCO3 /l (Baker 3506). The medium in each well was supplemented either with a sample of the novel GRF peptide or natural GRF(1-44)-NH2 at concentrations ranging from 0.8 to 200 fmol per ml of medium. Control wells contained no supplement. Plating was done with this medium added with 2% fetal calf serum to ensure rapid fixation of the cells.
On the fourth day, the cells were washed twice with the defined medium without fetal calf serum. Finally 900 μl of defined medium was added to each well plus 100 μl of the same medium containing each individual treatment, in triplicate. After 4 hours of incubation the medium was collected and diluted as required to conduct radioimmunoassay (RIAs) for rat growth hormone.
RIAs for rat growth hormone were conducted using Sinha's anti-murine GH immune serum and procedures according to the National Pituitary Agency using protein A to precipitate antibody antigen complex.

[2] = tested on: release of growth hormone; conditions: in vitro; Rivier et al., Nature 300: 276 (1982); cited from earlier work

| Substance | Potency Relative to GRF(1-44)-NH2 [1] | Biological activity compared with natural GRF(1-44)-NH2 ([1]; vs natural GRF(1-44)-NH2 isolated from human pancreatic tumor (Salk Institute standard hGRF-NH2 (NL-A-10))) | Intrinsic activity and potency on a weight for weight basis [2] |
| --- | --- | --- | --- |
| GRF(1-44)-NH2 [GRF(1-44)NH2] | 1.0 | identical to the natural GRF(1-44)-NH2 |  |
| GRF(1-29)-NH2 [GRF(1-29)NH2] | 0.5 |  | full intrinsic activity and potency |
